Experimental findings from ChEMBL document CHEMBL4130567, “Discovery of Thiophene[3,2-d]pyrimidine Derivatives as Potent HIV-1 NNRTIs Targeting the Tolerant Region I of NNIBP” (ACS Med Chem Lett, 2017) are described below.

Data set [1] relates to Human immunodeficiency virus 2. Put plainly: Antiviral activity against HIV2 ROD infected in human MT4 cells assessed as inhibition of virus-induced cytopathic effect after 5 days by MTT assay. It is filed as functional, organism-based. As to conditions: Human immunodeficiency virus 2, ISOLATE ROD, MT4, 120 h. (Damage to the host cells serves as the signal in cytopathic effect assays.)

A short description of data set [2]: Cytotoxicity against human MT4 cells assessed as reduction in cell viability after 5 days by MTT assay. It counts as cell-based. A general note: Tetrazolium assays rely on reduction of a dye to a coloured formazan, in cell work by metabolically active cells.
Data set [3] can be described thus: Selectivity index, ratio of CC50 for human MT4 cells to EC50 for wild type HIV1 3B infected in human MT4 cells. The note with it: MT4 cells infected with wild type HIV1 3B, read-out: Ratio CC50/EC50. It counts as toxicity, cell-based.
In data set [4] the test system is Human immunodeficiency virus 1. The experiment in a line: Antiviral activity against HIV1 3B harboring reverse transcriptase L100I mutant infected in human MT4 cells assessed as inhibition of virus-induced cytopathic effect after 5 days by MTT assay. The note with it: Human immunodeficiency virus 1, 3B, MT4, 120 h. It counts as functional, organism-based.
The test system of data set [5] is Human immunodeficiency virus 1. The experiment in a line: Antiviral activity against HIV1 3B harboring reverse transcriptase K103N mutant infected in human MT4 cells assessed as inhibition of virus-induced cytopathic effect after 5 days by MTT assay. It is filed as functional, organism-based. As to conditions: Human immunodeficiency virus 1, 3B, MT4, 120 h.
For data set [6], the system named is Human immunodeficiency virus 1. Put plainly: Antiviral activity against HIV1 3B harboring reverse transcriptase Y181C mutant infected in human MT4 cells assessed as inhibition of virus-induced cytopathic effect after 5 days by MTT assay. It counts as functional, organism-based. The note with it: Human immunodeficiency virus 1, 3B, MT4, 120 h.
For data set [7], the system named is Human immunodeficiency virus 1. Put plainly: Antiviral activity against HIV1 3B harboring reverse transcriptase Y188L mutant infected in human MT4 cells assessed as inhibition of virus-induced cytopathic effect after 5 days by MTT assay. It is filed as functional, organism-based. The note with it: Human immunodeficiency virus 1, 3B, MT4, 120 h.
In data set [8] the test system is Human immunodeficiency virus 1. The experiment in a line: Antiviral activity against HIV1 3B harboring reverse transcriptase E138K mutant infected in human MT4 cells assessed as inhibition of virus-induced cytopathic effect after 5 days by MTT assay. It counts as functional, organism-based. As to conditions: Human immunodeficiency virus 1, 3B, MT4, 120 h.
Data set [9] concerns Human immunodeficiency virus 1. Put plainly: Antiviral activity against HIV1 3B harboring reverse transcriptase F227L/V106A double mutant infected in human MT4 cells assessed as inhibition of virus-induced cytopathic effect after 5 days by MTT assay. It is filed as functional, organism-based. As to conditions: Human immunodeficiency virus 1, 3B, MT4, 120 h.
Data set [10] relates to Human immunodeficiency virus 1. The experiment in a line: Antiviral activity against HIV1 3B harboring reverse transcriptase RES056 double mutant infected in human MT4 cells assessed as inhibition of virus-induced cytopathic effect after 5 days by MTT assay. The note with it: Human immunodeficiency virus 1, 3B, MT4, 120 h. It is filed as functional, organism-based.
Data set [11] relates to Human immunodeficiency virus 1. The experiment in a line: Antiviral activity against wild type HIV1 3B infected in human MT4 cells assessed as inhibition of virus-induced cytopathic effect after 5 days by MTT assay. The note with it: Human immunodeficiency virus 1, 3B, MT4, 120 h. It is filed as functional, organism-based.
The target of data set [12] is Human immunodeficiency virus type 1 reverse transcriptase (Human immunodeficiency virus 1, UniProt Q72547). Put plainly: Inhibition of recombinant wild type HIV1 reverse transcriptase using DIG-labeled dUTP/biotin-labeled dUTP and dTTP as template and viral nucleotides assessed as decrease in biotin-dUTP incorporation after 1 hr by ELISA. (An ELISA detects its analyte on a solid surface through an enzyme-linked reagent.)

On to `Cc1cn([C@H]2C[C@H](N=[N+]=[N-])[C@@H](CO)O2)c(=O)[nH]c1=O` [ZIDOVUDINE], for which the EC50 (commonly the concentration at which the effect is half-maximal) in data set [1] was 8 nM; in [4], 5.4 nM; in data set [5], 7.8 nM; in data set [6] it was 6.3 nM; in [7], 8 nM; in data set [8], 17 nM. Besides, the figures for the concentration for a half-maximal effect (EC50) in [9] and in data set [10] were 5.3 nM and 11 nM, respectively. Also, in data set [2], the CC50 (as a rule, the concentration giving 50% cytotoxicity) at 120 h was over 7480 nM. Also, the selectivity ratio in data set [3] is over 664.
On to `Cc1cc(C#N)cc(C)c1Oc1nc(NC2CCC(NC(=O)c3ccc(C#N)cc3)CC2)nc2ccsc12` (stereo not given), for which the EC50 in data set [11] is 138 nM; in data set [1], over 2620 nM; in data set [4], over 2620 nM; in [5], at least 1440 nM; in data set [6], over 2620 nM; in data set [7], over 2620 nM. For the same compound, the 50% effective concentration (EC50) in [8] is 736 nM; in [9] it was over 2620 nM; in data set [10], over 2620 nM. Moreover, in data set [2], the 50% cytotoxic concentration (CC50) at 120 h was determined as 2620 nM. Moreover, in [3], the selectivity ratio came to 19.
For `CC(=O)Nc1ccc(S(=O)(=O)NC2CCC(Nc3nc(Oc4c(C)cc(C#N)cc4C)c4sccc4n3)CC2)cc1` (stereo not given), the concentration giving a half-maximal response (EC50) in [11] was 10 nM; in data set [1], over 3730 nM; in data set [4], 562 nM; in data set [5], 32 nM; in data set [6], 513 nM; in data set [7], 903 nM. Besides, the concentration giving a half-maximal response (EC50) was 35 nM in [8], 1210 nM in [9] and over 3730 nM in [10]. The CC50 at 120 h in data set [2] came to 3730 nM. Moreover, the selectivity ratio in data set [3] is 340. Moreover, the IC50 (in general, the point on the concentration scale where inhibition reaches its midpoint) in data set [12] was determined as 1040 nM.
As for `Cc1cc(C#N)cc(C)c1Oc1nc(NC2CCC(NS(=O)(=O)c3ccc(Br)cc3)CC2)nc2ccsc12` (stereo not given), the EC50 was 25 nM in [11]; over 5860 nM in data set [1]; 841 nM in data set [4]; 131 nM in data set [5]; 852 nM in data set [6]; 2250 nM in data set [7]. The EC50 is 126 nM in data set [8], at least 6140 nM in data set [9] and 5870 nM in [10]. In addition, in data set [2], the CC50 at 120 h amounted to 5860 nM. The selectivity ratio in data set [3] turned out to be 231.
On to `Cc1cc(C#N)cc(C)c1Oc1nc(NC2CCC(NC(=O)c3cccc(C(F)(F)F)c3)CC2)nc2ccsc12` (stereo not given), for which the EC50 in data set [11] was 196 nM; in data set [1] it was over 3240 nM; in data set [4], over 3240 nM; in data set [5] it was over 3240 nM; in [6] it was over 3240 nM; in data set [7], over 3240 nM. The concentration for a half-maximal effect (EC50) was at least 1330 nM in data set [8], over 3240 nM in data set [9] and over 3240 nM in data set [10]. In addition, the CC50 at 120 h in data set [2] stood at 3240 nM. Also, the selectivity ratio in data set [3] came to 17.
Regarding `Cc1cc(C#N)cc(C)c1Oc1nc(NC2CCC(NS(=O)(=O)c3ccc(C#N)cc3)CC2)nc2ccsc12` (stereo not given), the EC50 in data set [11] is 7.1 nM; in data set [1] it was over 9290 nM; in data set [4] it was 424 nM; in data set [5] it was 70 nM; in [6], 428 nM; in data set [7] it was 675 nM. Also, the 50% effective concentration (EC50) in [8] was 45 nM; in [9] it was 3580 nM; in data set [10] it was over 9280 nM. For the same compound, the CC50 at 120 h in data set [2] turned out to be 9290 nM. Further, the selectivity ratio in data set [3] came out at 1310. Also, the 50% inhibitory concentration (IC50) in data set [12] came to 1140 nM.
For `Cc1cc(C#N)cc(C)c1Oc1nc(NC2CCC(NC(=O)c3ccc(F)cc3)CC2)nc2ccsc12` (stereo not given), the EC50 in [11] was 26 nM; in data set [1], over 3180 nM; in [4] it was over 3180 nM; in data set [5] it was 478 nM; in [6] it was over 3180 nM; in data set [7], over 3180 nM. Also, the EC50 in data set [8] is 230 nM; in data set [9], over 3180 nM; in [10] it was over 3180 nM. Moreover, in data set [2], the cytotoxic concentration (CC50) at 120 h was 3180 nM. Also, the selectivity ratio in data set [3] came out at 121.
As to `Cc1cc(C#N)cc(C)c1Oc1nc(NC2CCC(NS(=O)(=O)c3cccc(C(F)(F)F)c3)CC2)nc2ccsc12` (stereo not given), the EC50 in data set [11] is 86 nM; in data set [1], over 6680 nM; in data set [4], at least 4090 nM; in data set [5] it was 569 nM; in data set [6], at least 4340 nM; in data set [7], over 6690 nM. The results for the concentration for a half-maximal effect (EC50) in data set [8], in [9] and in data set [10] were 642 nM, over 6690 nM and over 6690 nM, respectively. Besides, the CC50 at 120 h in data set [2] was 6680 nM. Further, the selectivity ratio in data set [3] stood at 78.
Turning to `Cc1cc(C#N)cc(C)c1Oc1nc(NC2CCC(NC(=O)c3ccc(Br)cc3)CC2)nc2ccsc12` (stereo not given), the concentration giving a half-maximal response (EC50) was 30 nM in [11]; over 2850 nM in [1]; over 2850 nM in data set [4]; 519 nM in [5]; over 2850 nM in data set [6]; over 2850 nM in data set [7]. Besides, the results for the half-maximal effective concentration (EC50) in data set [8], in data set [9] and in data set [10] were 370 nM, over 2850 nM and over 2850 nM, respectively. Besides, the half-maximal cytotoxic concentration (CC50) at 120 h in [2] was determined as 2850 nM. The selectivity ratio in data set [3] was found to be 93.
`Cc1cc(C#N)cc(C)c1Oc1nc(NC2CCC(NC(=O)c3ccccc3)CC2)nc2ccsc12` (stereo not given): the concentration for a half-maximal effect (EC50) is 13 nM in data set [11]; over 3930 nM in data set [1]; over 3920 nM in data set [4]; 273 nM in [5]; at least 1510 nM in data set [6]; over 3920 nM in data set [7]. Further, the half-maximal effective concentration (EC50) is 183 nM in data set [8], over 3920 nM in data set [9] and over 3920 nM in [10]. For the same compound, the half-maximal cytotoxic concentration (CC50) at 120 h in data set [2] was 3930 nM. The selectivity ratio in [3] is 294.
In the case of `Cc1cc(C#N)cc(C)c1Oc1nc(Nc2ccc(C#N)cc2)nc(N)c1Br` [ETRAVIRINE], the EC50 in data set [11] is 2.8 nM; in [4] it was 9.7 nM; in data set [5], 3.4 nM; in data set [6], 19 nM; in data set [7] it was 20 nM; in [9], 23 nM. Also, the 50% effective concentration (EC50) in data set [10] worked out at 26 nM. Moreover, the cytotoxic concentration (CC50) at 120 h in [2] turned out to be 2180 nM.
In the case of `Cc1cc(C#N)cc(C)c1Oc1nc(NC2CCC(NS(=O)(=O)c3ccc(F)cc3)CC2)nc2ccsc12` (stereo not given), the concentration giving a half-maximal response (EC50) was 9.2 nM in data set [11]; over 3530 nM in data set [1]; 410 nM in data set [4]; 103 nM in data set [5]; 472 nM in [6]; over 3520 nM in data set [7]. Moreover, the EC50 in [8] is 76 nM; in data set [9] it was over 3520 nM; in data set [10], over 3520 nM. Also, the CC50 at 120 h in data set [2] came out at 3530 nM. The selectivity ratio in [3] worked out at 383.
